# Assays:
# Format in all cases: cell-based, human
# [1] = test system: HCT 116 cells transduced with the PDE5A DD derived GFP constructs; experiment: Response to Vardenafil, GFP expression by FACS in HCT116; settings: for MFI / Stabilization ratio with Vardenafil: 48 hours, HCT116; for Basal: Table 15, MFI with DMSO / parental HCT116, Vardenafil experiment
# Procedure, shortened: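 HCT116 cells stably carrying lentiviral AcGFP fusions of PDE5A (535-860) mutants, sorted on mCherry, got DMSO or Vardenafil (10 μM, or 0.002–30 μM) for 48 h, and GFP MFI was read by flow cytometry. Basal expression is untreated GFP over parental autofluorescence; the stabilization ratio is treated over untreated MFI.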
# [2] = test system: HCT 116 cells transduced with the PDE5A DD derived GFP constructs; experiment: Response to Tadalafil, GFP expression by FACS in HCT116; settings: for MFI / Stabilization ratio with Tadalafil: 48 hours, HCT116
# Procedure, shortened: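 HCT116 cells stably transduced (mCherry-sorted) with lentiviral PDE5A DD–AcGFP constructs, exposed to DMSO or Tadalafil 0.01–100 μM for 48 hrs. GFP mean fluorescence by FACS; stabilization ratio = ligand vs no-ligand signal, basal expression = no-ligand signal vs parental autofluorescence.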
# [3] = test system: HCT116 cells transduced with the constructs; experiment: Response to Sildenafil, GFP expression by flow cytometry in HCT116; settings: for MFI / Stabilization ratio with Sildenafil: 48 hours, HCT116
# Procedure, shortened: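 HCT116 cells stably expressing AcGFP-fused destabilizing domains from a lentiviral mCherry-marked vector (sorted on mCherry) were exposed to sildenafil at 0.01–100 μM for 48 hours. GFP mean fluorescence intensity was measured by flow cytometry.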
substance,measurement,setting,value
"PDE5AC (#43): AcGFP fused to C-terminal DD 535-860 of PDE5A (Q589R, N609H, Y676N, A762S), SEQ ID NO. 29",MFI,[1]; DMSO (no Vardenafil),12047
same,Basal (DMSO/Parental),"[1]; Table 10, GFP signal without ligand / auto fluorescence of parental HCT-116",8.7
same,Basal,[1],6.17
same,Stabilization ratio with Vardenafil,[1]; Vardenafil 0.002 μM vs DMSO,1.1
same,MFI,[1]; Vardenafil 0.002 μM,13329
same,MFI,[1]; Vardenafil 0.005 μM,17702
same,Stabilization ratio with Vardenafil,[1]; Vardenafil 0.014 μM vs DMSO,2.8
same,MFI,[1]; Vardenafil 0.014 μM,33483
same,Stabilization ratio with Vardenafil,[1]; Vardenafil 0.041 μM vs DMSO,4.6
same,MFI,[1]; Vardenafil 0.041 μM,55300
same,Stabilization ratio with Vardenafil,[1]; Vardenafil 0.123 μM vs DMSO,5.8
same,MFI,[1]; Vardenafil 0.123 μM,70385
same,Stabilization ratio with Vardenafil,[1]; Vardenafil 0.370 μM vs DMSO,6.5
same,MFI,[1]; Vardenafil 0.370 μM,78215
same,Stabilization ratio with Vardenafil,[1]; Vardenafil 1.111 μM vs DMSO,6.9
same,MFI,[1]; Vardenafil 1.111 μM,83052
same,Stabilization ratio with Vardenafil,[1]; Vardenafil 3.333 μM vs DMSO,7.4
same,MFI,[1]; Vardenafil 3.333 μM,88707
same,Stabilization ratio with Vardenafil,[1]; Vardenafil 10 μM vs DMSO,7.1
same,MFI,[1]; Vardenafil 10 μM,85867
same,Stabilization ratio with Vardenafil,[1]; Vardenafil 30 μM vs DMSO,7.2
same,MFI,[1]; Vardenafil 30 μM,86318
same,MFI,[2]; DMSO (no Tadalafil),10998
same,Basal expression,"[2]; Table 21, MFI with DMSO / parental HCT116, Tadalafil experiment",8.59
same,Stabilization ratio with Tadalafil,[2]; Tadalafil 0.01 μM vs DMSO,1.0
same,MFI,[2]; Tadalafil 0.01 μM,11444
same,Stabilization ratio with Tadalafil,[2]; Tadalafil 0.02 μM vs DMSO,1.0
same,MFI,[2]; Tadalafil 0.02 μM,11479
same,Stabilization ratio with Tadalafil,[2]; Tadalafil 0.05 μM vs DMSO,1.1
same,MFI,[2]; Tadalafil 0.05 μM,11764
same,Stabilization ratio with Tadalafil,[2]; Tadalafil 0.14 μM vs DMSO,1.2
same,MFI,[2]; Tadalafil 0.14 μM,13429
same,Stabilization ratio with Tadalafil,[2]; Tadalafil 0.41 μM vs DMSO,1.7
same,MFI,[2]; Tadalafil 0.41 μM,18940
same,Stabilization ratio with Tadalafil,[2]; Tadalafil 1.23 μM vs DMSO,2.9
same,MFI,[2]; Tadalafil 1.23 μM,32204
same,Stabilization ratio with Tadalafil,[2]; Tadalafil 3.7 μM vs DMSO,4.5
same,MFI,[2]; Tadalafil 3.7 μM,49646
same,Stabilization ratio with Tadalafil,[2]; Tadalafil 11.11 μM vs DMSO,5.8
same,MFI,[2]; Tadalafil 11.11 μM,64186
same,Stabilization ratio with Tadalafil,[2]; Tadalafil 33.33 μM vs DMSO,6.8
same,MFI,[2]; Tadalafil 33.33 μM,74446
same,Stabilization ratio with Tadalafil,[2]; Tadalafil 100 μM vs DMSO,6.9
same,MFI,[2]; Tadalafil 100 μM,76281
same,MFI,[3]; DMSO (no Sildenafil),11147
same,Stabilization ratio with Sildenafil,[3]; Sildenafil 0.01 μM vs DMSO,1.1
same,MFI,[3]; Sildenafil 0.01 μM,11962
same,Stabilization ratio with Sildenafil,[3]; Sildenafil 0.02 μM vs DMSO,1.1
same,MFI,[3]; Sildenafil 0.02 μM,11940
same,Stabilization ratio with Sildenafil,[3]; Sildenafil 0.05 μM vs DMSO,1.4
same,MFI,[3]; Sildenafil 0.05 μM,15203
same,MFI,[3]; Sildenafil 0.14 μM,24319
same,Stabilization ratio with Sildenafil,[3]; Sildenafil 0.41 μM vs DMSO,3.6
same,MFI,[3]; Sildenafil 0.41 μM,40470
same,Stabilization ratio with Sildenafil,[3]; Sildenafil 1.23 μM vs DMSO,5.2
same,MFI,[3]; Sildenafil 1.23 μM,57723
same,Stabilization ratio with Sildenafil,[3]; Sildenafil 3.70 μM vs DMSO,6.6
same,MFI,[3]; Sildenafil 3.70 μM,73400
same,Stabilization ratio with Sildenafil,[3]; Sildenafil 11.11 μM vs DMSO,6.9
same,MFI,[3]; Sildenafil 11.11 μM,76900
same,Stabilization ratio with Sildenafil,[3]; Sildenafil 33.33 μM vs DMSO,8.5
same,MFI,[3]; Sildenafil 33.33 μM,94863
same,Stabilization ratio with Sildenafil,[3]; Sildenafil 100.00 μM vs DMSO,5.1
same,MFI,[3]; Sildenafil 100.00 μM,56552
same,Basal expression,"[3]; Table 26, MFI with DMSO / parental HCT116, Sildenafil experiment",8.7
"PDE5AC (#69): AcGFP fused to C-terminal DD 535-860 of PDE5A (Q589R, N636S, D687A, D764N, S815C), SEQ ID NO. 30",MFI,[1]; DMSO (no Vardenafil),9466
same,Basal,[1],4.84
same,Stabilization ratio with Vardenafil,[1]; Vardenafil 0.002 μM vs DMSO,1.1
same,MFI,[1]; Vardenafil 0.002 μM,10817
same,MFI,[1]; Vardenafil 0.005 μM,13682
same,Stabilization ratio with Vardenafil,[1]; Vardenafil 0.014 μM vs DMSO,2.9
same,MFI,[1]; Vardenafil 0.014 μM,27457
same,Stabilization ratio with Vardenafil,[1]; Vardenafil 0.041 μM vs DMSO,3.4
same,MFI,[1]; Vardenafil 0.041 μM,32264
same,Stabilization ratio with Vardenafil,[1]; Vardenafil 0.123 μM vs DMSO,5.3
same,MFI,[1]; Vardenafil 0.123 μM,49884
same,Stabilization ratio with Vardenafil,[1]; Vardenafil 0.370 μM vs DMSO,7.9
same,MFI,[1]; Vardenafil 0.370 μM,74730
same,Stabilization ratio with Vardenafil,[1]; Vardenafil 1.111 μM vs DMSO,6.6
same,MFI,[1]; Vardenafil 1.111 μM,62065
same,Stabilization ratio with Vardenafil,[1]; Vardenafil 3.333 μM vs DMSO,7.0
same,MFI,[1]; Vardenafil 3.333 μM,66625
same,Stabilization ratio with Vardenafil,[1]; Vardenafil 10 μM vs DMSO,6.8
same,MFI,[1]; Vardenafil 10 μM,64380
same,Stabilization ratio with Vardenafil,[1]; Vardenafil 30 μM vs DMSO,2.4
same,MFI,[1]; Vardenafil 30 μM,22775
same,MFI,[2]; DMSO (no Tadalafil),8822
same,Stabilization ratio with Tadalafil,[2]; Tadalafil 0.01 μM vs DMSO,1.1
same,MFI,[2]; Tadalafil 0.01 μM,9337
same,Stabilization ratio with Tadalafil,[2]; Tadalafil 0.02 μM vs DMSO,1.2
same,MFI,[2]; Tadalafil 0.02 μM,10353
same,Stabilization ratio with Tadalafil,[2]; Tadalafil 0.05 μM vs DMSO,1.4
same,MFI,[2]; Tadalafil 0.05 μM,12365
same,MFI,[2]; Tadalafil 0.14 μM,19039
same,Stabilization ratio with Tadalafil,[2]; Tadalafil 0.41 μM vs DMSO,3.7
same,MFI,[2]; Tadalafil 0.41 μM,32821
same,Stabilization ratio with Tadalafil,[2]; Tadalafil 1.23 μM vs DMSO,5.9
same,MFI,[2]; Tadalafil 1.23 μM,52033
same,Stabilization ratio with Tadalafil,[2]; Tadalafil 3.7 μM vs DMSO,7.1
same,MFI,[2]; Tadalafil 3.7 μM,62558
same,Stabilization ratio with Tadalafil,[2]; Tadalafil 11.11 μM vs DMSO,7.9
same,MFI,[2]; Tadalafil 11.11 μM,69440
same,Stabilization ratio with Tadalafil,[2]; Tadalafil 33.33 μM vs DMSO,7.7
same,MFI,[2]; Tadalafil 33.33 μM,68289
same,MFI,[2]; Tadalafil 100 μM,67259
same,MFI,[3]; DMSO (no Sildenafil),9575
same,Stabilization ratio with Sildenafil,[3]; Sildenafil 0.01 μM vs DMSO,1.0
same,MFI,[3]; Sildenafil 0.01 μM,9574
same,Stabilization ratio with Sildenafil,[3]; Sildenafil 0.02 μM vs DMSO,1.2
same,MFI,[3]; Sildenafil 0.02 μM,11755
same,Stabilization ratio with Sildenafil,[3]; Sildenafil 0.05 μM vs DMSO,1.2
same,MFI,[3]; Sildenafil 0.05 μM,11944
same,MFI,[3]; Sildenafil 0.14 μM,19733
same,Stabilization ratio with Sildenafil,[3]; Sildenafil 0.41 μM vs DMSO,3.1
same,MFI,[3]; Sildenafil 0.41 μM,30090
same,Stabilization ratio with Sildenafil,[3]; Sildenafil 1.23 μM vs DMSO,4.6
same,MFI,[3]; Sildenafil 1.23 μM,44180
same,Stabilization ratio with Sildenafil,[3]; Sildenafil 3.70 μM vs DMSO,5.5
same,MFI,[3]; Sildenafil 3.70 μM,52782
same,Stabilization ratio with Sildenafil,[3]; Sildenafil 11.11 μM vs DMSO,6.2
same,MFI,[3]; Sildenafil 11.11 μM,59723
same,Stabilization ratio with Sildenafil,[3]; Sildenafil 33.33 μM vs DMSO,6.8
same,MFI,[3]; Sildenafil 33.33 μM,65183
same,Stabilization ratio with Sildenafil,[3]; Sildenafil 100.00 μM vs DMSO,5.4
same,MFI,[3]; Sildenafil 100.00 μM,51774
